Results reported in patent US6914045B2, “Glycopeptide antibiotics” (Wyeth Holdings Corporation, priority 2001, dated 2005).
In brackets after ≈: the same amount, converted by molar mass.

How the values were obtained:
Enterococcus sp. = test: in vitro antibacterial evaluation, MIC by broth dilution; format: cell-based; details: broth dilution, 18 hours at 35° C.
Summary of the method: (§1)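 MIC = lowest antibiotic concentration preventing visible growth; inoculum 5×10^5 CFU/mL; drug range 64-0.06 μg/mL; Muller-Hinton II […]; NCCLS M7-A2 guidance.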

Streptococcus sp. = test: as above; format: cell-based; details: broth dilution, 18 hours at 35° C.
Summary of the method: as §1

Staphylococcus sp. = test: as above; format: cell-based; details: broth dilution, 18 hours at 35° C.
Summary of the method: as §1

[1] = anatomic pathology (histopathology of heart and kidney) in mice; format: in vivo; details: CD-1 mice, 20 mg/kg intravenously daily for 9 days, necropsy day 10, microscopic histopathology
Description: Samples of tissues from necropsied mice were formalin-fixed, paraffin-embedded, sectioned, stained with hematoxylin and eosin, and examined microscopically. Histopathologic findings were recorded. These findings were subjectively graded on a scale corresponding to slight, mild, moderate, marked and severe as compared to untreated controls.

Escherichia coli = test: in vitro antibacterial evaluation, MIC by broth dilution; format: cell-based; details: 18 hours at 35° C.
Summary of the method: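 Broth dilution MIC per NCCLS M7-A2 in Mueller-Hinton II medium, inoculum 5×10^5 CFU/mL, antibiotic range 64-0.06 μg/mL. MIC taken as lowest concentration inhibiting growth.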

- MIC Enterococcus avium (GC 4558) (Enterococcus sp.; Enterococcus avium (GC 4558)): 128 µg/mL (≈ 89.5 µM)
- MIC Enterococcus faecalis (ATCC 29212) (Enterococcus sp.; Enterococcus faecalis (ATCC 29212)): >128 µg/mL
- MIC Enterococcus faecalis (GC 4552) (Enterococcus sp.; Enterococcus faecalis (GC 4552)): >128 µg/mL
- MIC Enterococcus faecalis (GC 4553) (Enterococcus sp.; Enterococcus faecalis (GC 4553)): >128 µg/mL
- MIC Enterococcus faecalis (GC 4554) (Enterococcus sp.; Enterococcus faecalis (GC 4554)): >128 µg/mL
- MIC Enterococcus faecalis (GC 6189) (Enterococcus sp.; Enterococcus faecalis (GC 6189)): >128 µg/mL
- MIC Enterococcus faecium (GC 2243) (Enterococcus sp.; Enterococcus faecium (GC 2243)): >128 µg/mL
- MIC Enterococcus faecium (GC 4556) (Enterococcus sp.; Enterococcus faecium (GC 4556)): >128 µg/mL
- MIC Enterococcus faecium (GC 4557) (Enterococcus sp.; Enterococcus faecium (GC 4557)): 128 µg/mL (≈ 89.5 µM)
- MIC Enterococcus avium (GC 4558) (Enterococcus sp.): 128 µg/mL (≈ 89.5 µM)
- MIC Enterococcus faecalis (ATCC 29212) (Enterococcus sp.): >128 µg/mL
- MIC Enterococcus faecalis (GC 2242) (Enterococcus sp.): >128 µg/mL
- MIC Enterococcus faecalis (GC 2691) (Enterococcus sp.): >128 µg/mL
- MIC Enterococcus faecalis (GC 3059) (Enterococcus sp.): >128 µg/mL
- MIC Enterococcus faecalis (GC 4552) (Enterococcus sp.): >128 µg/mL
- MIC Enterococcus faecalis (GC 4553) (Enterococcus sp.): >128 µg/mL
- MIC Enterococcus faecalis (GC 4554) (Enterococcus sp.): >128 µg/mL
- MIC Enterococcus faecalis (GC 6189) (Enterococcus sp.): >128 µg/mL
- MIC Enterococcus faecium (GC 2243) (Enterococcus sp.): >128 µg/mL
- MIC Enterococcus faecium (GC 4556) (Enterococcus sp.): >128 µg/mL
- MIC Enterococcus faecium (GC 4557) (Enterococcus sp.): 128 µg/mL (≈ 89.5 µM)
- MIC Enterococcus faecalis (GC 2242) (Enterococcus sp.; strain GC 2242): >128 µg/mL
- MIC Enterococcus faecalis (GC 2691) (Enterococcus sp.; strain GC 2691): >128 µg/mL
- MIC Enterococcus faecalis (GC 3059) (Enterococcus sp.; strain GC 3059): >128 µg/mL
- MIC Streptococcus agalactiae (GC 4564) (Streptococcus sp.): 128 µg/mL (≈ 89.5 µM)
- MIC Streptococcus pneumoniae (ATCC 6301) (Streptococcus sp.): 128 µg/mL (≈ 89.5 µM)
- MIC Streptococcus pneumoniae (GC 1894) (Streptococcus sp.): 128 µg/mL (≈ 89.5 µM)
- MIC Streptococcus pneumoniae (GC 4565) (Streptococcus sp.): 128 µg/mL (≈ 89.5 µM)
- MIC Streptococcus pyogenes (GC 4563) (Streptococcus sp.): >128 µg/mL
- MIC Streptococcus pneumoniae (ATCC 6301) (Streptococcus sp.; strain ATCC 6301): 128 µg/mL (≈ 89.5 µM)
- MIC Streptococcus pneumoniae (GC 1894) (Streptococcus sp.; strain GC 1894): 128 µg/mL (≈ 89.5 µM)
- MIC Streptococcus pyogenes (GC 4563) (Streptococcus sp.; strain GC 4563): >128 µg/mL
- MIC Streptococcus agalactiae (GC 4564) (Streptococcus sp.; strain GC 4564): 128 µg/mL (≈ 89.5 µM)
- MIC Streptococcus pneumoniae (GC 4565) (Streptococcus sp.; strain GC 4565): 128 µg/mL (≈ 89.5 µM)
- MIC Staphylococcus aureus (ATCC 29213) (Staphylococcus sp.; strain ATCC 29213): >128 µg/mL
- MIC Staphylococcus aureus (GC 1131) (Staphylococcus sp.; strain GC 1131): >128 µg/mL
- MIC Staphylococcus aureus (GC 3051) (Staphylococcus sp.; strain GC 3051): >128 µg/mL
- MIC Staphylococcus aureus (GC 3053) (Staphylococcus sp.; strain GC 3053): >128 µg/mL
- MIC Staphylococcus aureus (GC 4541) (Staphylococcus sp.; strain GC 4541): >128 µg/mL
- MIC Staphylococcus aureus (GC 4542) (Staphylococcus sp.; strain GC 4542): >128 µg/mL
- MIC Staphylococcus aureus-SMITH (GC 4543) (Staphylococcus sp.; strain GC 4543): >128 µg/mL
- MIC Staphylococcus aureus (GC 4544) (Staphylococcus sp.; strain GC 4544): >128 µg/mL
- MIC Staphylococcus aureus (GC 4545) (Staphylococcus sp.; strain GC 4545): >128 µg/mL
- MIC Coagulase Negative Staphylococcus (GC 4547) (Staphylococcus sp.; strain GC 4547): >128 µg/mL
- MIC Coagulase Negative Staphylococcus (GC 4548) (Staphylococcus sp.; strain GC 4548): >128 µg/mL
- MIC Coagulase Negative Staphylococcus (GC 4549) (Staphylococcus sp.; strain GC 4549): >128 µg/mL
- MIC Coagulase Negative Staphylococcus (GC 4551) (Staphylococcus sp.; strain GC 4551): >128 µg/mL
- MIC Coagulase Negative Staphylococcus (GC 6257) (Staphylococcus sp.; strain GC 6257): >128 µg/mL
- MIC Escherichia coli (ATCC 25922) (Escherichia coli): >128 µg/mL
- MIC Escherichia coli (GC 4559) (Escherichia coli): >128 µg/mL
- MIC Escherichia coli (GC 4560) (Escherichia coli): >128 µg/mL
SMILES: CC(c1ccccc1)C1NC(=O)CNC(=O)C(CO)NC(=O)C(C(O)C2CN(Cc3ccc(C(=O)O)cc3)C(=N)N2C2OC(CO)C(O)C(O)C2O)NC(=O)C(C(O)C2CNC(=N)N2)NC(=O)C(Cc2ccc(OC3OC(CO)C(OC4OC(CO)C(O)C(O)C4O)C(O)C3O)cc2)NC1=O (stereo not drawn) [Example 69, Cyclo[glycyl-β-methylphenylalanyl-O-(4-O-hexopyranosylhexopyranosyl)tyrosyl-3-(2-iminoimidazolidin-4-yl)seryl-3-[1-(4-carboxybenzyl)-2-imino-3-hexopyranosylimidazolidin-4-yl]-serylseryl]]
- MIC Staphylococcus haemolyticus (GC 4546) (Staphylococcus sp.; strain GC 4546): >128 µg/mL
- Anatomical Pathology (Day 10), Heart [1]: 0
- Anatomical Pathology (Day 10), Kidney [1]: 0
